Series [1] has as its system mGlu1, mGlu4, mGlu5, mGlu6 and mGlu8. Briefly: Functional (agonist and antagonist) assays towards mGlu receptors. It counts as cell-based. The note with it: mGlu1, 4, 5, 6, 8.
The next series has as its target T1, human mGlu2 (Homo sapiens, UniProt Q14416).
T1 construct: expressed in transfected cells
The series is described as follows: Human mGlu2 GIRK thallium flux assay. It counts as cell-based. The note with it: HEK293 cells, EC80 glutamate, triplicate assays (14g duplicate). As for the experimental part:
(§1) Cell Line Generation and Thallium Flux Assays. The general procedure for the preparation of human mGlu2 and mGlu3 was described previously, [56] with minor modifications in this work. The cloning sites were NheI/NotI for both receptors. HEK GIRK cells, generously provided by Lily Jan (University of California San Francisco, San Francisco, CA), were transfected with 24 μg of DNA using Fugene6 (Promega), stable transfectants were selected with 1 μg/mL puromycin dihydrochloride (Sigma-Aldrich, St. Louis, MO), and polyclonal human mGlu2 GIRK and mGlu3 GIRK cell lines were established. Cells were maintained following selection in 45% DMEM, 45% Ham's F12, 10% FBS, 100 units/mL penicillin/streptomycin, 20 mM HEPES, pH 7.3, 1 mM sodium pyruvate, 2 mM glutamine, 700 μg/mL G418 (Mediatech, Inc., Herndon, VA), and […] puromycin (growth media) at 37 °C in the presence of 5% CO2. All cell culture reagents were purchased from Invitrogen Corp. (Carlsbad, CA) unless otherwise noted.
(§2) Human mGlu2 and mGlu3 Thallium Flux in Vitro Assays. Potencies of these NAMs at both mGlu2 and mGlu3 were investigated by thallium flux through GIRK channels, which was disclosed in detail as well as described in our previous work. In particular, cells were plated into 384-well, black-walled, clear-bottomed poly(D-lysine_-coated plates at a density of 15 000 cells per well in 20 μL of DMEM containing 10% dialyzed FBS, 20 mM HEPES, and 100 units/mL penicillin/streptomycin (assay media). Plated cells were incubated overnight at 37 °C in the presence of 5% CO2. The next day, the medium was exchanged from the cells to assay buffer [Hanks' balanced salt solution (Invitrogen) containing 20 mM HEPES, pH 7.3] using an ELX405 microplate washer (BioTek), leaving 20 μL per well, followed by the addition of 20 μL per well of FluoZin2-AM (330 nM final concentration) indicator dye (Invitrogen; prepared as a stock in DMSO and mixed in a 1:1 ratio with Pluronic acid F-127) in assay buffer. Cells were incubated for 1 h at room temperature, and the dye was exchanged to assay buffer using an ELX405, leaving 20 μL per well. For concentration-response curve experiments, compounds were serially diluted 1:3 into 10 point concentration-response curves and were transferred to daughter plates using an Echo acoustic plate reformatter (Labcyte, Sunnyvale, CA). Test compounds were diluted to 2 times their final desired concentration in assay buffer (0.3% DMSO final concentration). Agonists were diluted in thallium buffer [125 mM sodium bicarbonate (added fresh the morning of the experiment), 1 mM magnesium sulfate, 1.8 mM calcium sulfate, 5 mM glucose, 12 mM thallium sulfate, and 10 mM HEPES, pH 7.3] at 5 times the final concentration to be assayed. Cell plates and compound plates were loaded onto a kinetic imaging plate reader (FDSS 6000 or 7000; Hamamatsu Corporation, Bridgewater, NJ). Appropriate baseline readings were taken (10 images at 1 Hz; excitation, 470 ± 20 nm; emission, 540 ± 30 nm), and test compounds were added in a 20 μL volume and incubated for approximately 1 h at room temperature before the addition of 10 μL of thallium buffer with or without an EC80 concentration of the agonist glutamate for affinity evaluation experiments or with a full concentration-response of glutamate for Schild analysis experiments. After the addition of agonist, data were collected for approximately an additional 2.5 min. Data were analyzed using Excel (Microsoft Corp, Redmond, WA). The slope of the fluorescence increase beginning 5 s after thallium/agonist addition and ending 15 s after thallium/agonist addition was calculated, corrected to vehicle and maximal agonist control slope values, and plotted using either XLfit (ID Business Solutions Ltd.) or Prism software (GraphPad Software, San Diego, CA) to generate concentration-response curves. Potencies were calculated from fits using a four-point parameter logistic equation.

The next series has as its target T2, human mGlu3 (Homo sapiens, UniProt Q14832).
T2 construct: expressed in transfected cells
The series is described as follows: Human mGlu3 GIRK thallium flux assay. The class given is cell-based. The note with it: HEK293 cells, triplicate assays (14g duplicate). As for the experimental part:
as §1, §2

Another series addresses T3, hERG (Homo sapiens, UniProt Q12809).
T3 construct: NIMH PDSP
The series is described as follows: hERG safety assay. It counts as binding. A general note: The hERG channel carries a current that helps repolarise heart muscle cells.

For another series, the system named is major CNS targets. The series is described as follows: CNS panel binding selectivity assays (NIMH PDSP).
Details of series [2]: method as in PMID 30611634. The conditions noted are these: cited from earlier work.
The conditions of series [3]: animal PET; cited from earlier work.
For the next series, the system named is mGlu2. The conditions noted are these: cited from earlier work.

T1 sequence (Q14416 19-872): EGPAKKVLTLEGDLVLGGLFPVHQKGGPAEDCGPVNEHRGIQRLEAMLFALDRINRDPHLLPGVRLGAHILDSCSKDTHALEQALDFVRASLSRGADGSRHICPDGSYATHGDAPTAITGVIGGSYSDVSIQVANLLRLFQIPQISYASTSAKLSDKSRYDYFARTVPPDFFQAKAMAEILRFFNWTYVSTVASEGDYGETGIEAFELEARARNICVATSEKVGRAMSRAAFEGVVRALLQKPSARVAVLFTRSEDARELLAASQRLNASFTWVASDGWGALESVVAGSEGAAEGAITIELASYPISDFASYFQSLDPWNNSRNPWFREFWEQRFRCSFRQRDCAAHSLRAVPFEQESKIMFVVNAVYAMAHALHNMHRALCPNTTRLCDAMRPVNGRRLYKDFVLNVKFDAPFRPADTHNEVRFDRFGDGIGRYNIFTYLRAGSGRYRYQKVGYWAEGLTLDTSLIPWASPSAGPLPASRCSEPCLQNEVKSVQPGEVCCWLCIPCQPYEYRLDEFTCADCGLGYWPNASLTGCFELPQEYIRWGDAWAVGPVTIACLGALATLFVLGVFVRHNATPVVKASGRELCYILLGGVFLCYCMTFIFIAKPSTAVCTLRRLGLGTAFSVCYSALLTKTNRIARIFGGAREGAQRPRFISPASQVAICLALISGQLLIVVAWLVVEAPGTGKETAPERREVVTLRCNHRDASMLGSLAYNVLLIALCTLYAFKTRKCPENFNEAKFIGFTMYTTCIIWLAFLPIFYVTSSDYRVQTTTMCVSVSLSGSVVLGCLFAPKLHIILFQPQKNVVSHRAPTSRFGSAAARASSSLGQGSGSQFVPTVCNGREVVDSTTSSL
T2 sequence (Q14832 23-879): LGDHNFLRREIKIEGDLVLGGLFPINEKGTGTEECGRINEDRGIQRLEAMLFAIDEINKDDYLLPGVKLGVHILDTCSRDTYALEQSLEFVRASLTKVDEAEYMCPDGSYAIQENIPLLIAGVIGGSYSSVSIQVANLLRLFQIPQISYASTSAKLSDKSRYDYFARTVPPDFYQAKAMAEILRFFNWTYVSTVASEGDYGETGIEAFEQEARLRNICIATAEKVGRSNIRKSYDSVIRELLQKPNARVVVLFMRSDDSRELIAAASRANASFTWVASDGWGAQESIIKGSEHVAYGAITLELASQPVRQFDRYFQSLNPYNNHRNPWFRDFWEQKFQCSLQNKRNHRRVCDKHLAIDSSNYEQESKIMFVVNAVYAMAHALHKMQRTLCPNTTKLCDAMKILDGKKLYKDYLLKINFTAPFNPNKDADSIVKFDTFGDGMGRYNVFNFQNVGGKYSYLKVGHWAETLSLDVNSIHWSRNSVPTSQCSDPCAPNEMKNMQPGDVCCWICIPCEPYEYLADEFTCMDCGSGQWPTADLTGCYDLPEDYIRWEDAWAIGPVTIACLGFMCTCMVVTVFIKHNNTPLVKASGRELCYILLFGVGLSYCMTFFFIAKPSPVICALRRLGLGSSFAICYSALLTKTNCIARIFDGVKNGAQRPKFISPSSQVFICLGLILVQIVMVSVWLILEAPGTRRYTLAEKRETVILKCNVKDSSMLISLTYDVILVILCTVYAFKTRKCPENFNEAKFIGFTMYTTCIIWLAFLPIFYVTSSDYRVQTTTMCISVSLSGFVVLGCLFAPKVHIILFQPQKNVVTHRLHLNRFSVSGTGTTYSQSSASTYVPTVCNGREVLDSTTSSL
T3 sequence (Q12809 whole entry): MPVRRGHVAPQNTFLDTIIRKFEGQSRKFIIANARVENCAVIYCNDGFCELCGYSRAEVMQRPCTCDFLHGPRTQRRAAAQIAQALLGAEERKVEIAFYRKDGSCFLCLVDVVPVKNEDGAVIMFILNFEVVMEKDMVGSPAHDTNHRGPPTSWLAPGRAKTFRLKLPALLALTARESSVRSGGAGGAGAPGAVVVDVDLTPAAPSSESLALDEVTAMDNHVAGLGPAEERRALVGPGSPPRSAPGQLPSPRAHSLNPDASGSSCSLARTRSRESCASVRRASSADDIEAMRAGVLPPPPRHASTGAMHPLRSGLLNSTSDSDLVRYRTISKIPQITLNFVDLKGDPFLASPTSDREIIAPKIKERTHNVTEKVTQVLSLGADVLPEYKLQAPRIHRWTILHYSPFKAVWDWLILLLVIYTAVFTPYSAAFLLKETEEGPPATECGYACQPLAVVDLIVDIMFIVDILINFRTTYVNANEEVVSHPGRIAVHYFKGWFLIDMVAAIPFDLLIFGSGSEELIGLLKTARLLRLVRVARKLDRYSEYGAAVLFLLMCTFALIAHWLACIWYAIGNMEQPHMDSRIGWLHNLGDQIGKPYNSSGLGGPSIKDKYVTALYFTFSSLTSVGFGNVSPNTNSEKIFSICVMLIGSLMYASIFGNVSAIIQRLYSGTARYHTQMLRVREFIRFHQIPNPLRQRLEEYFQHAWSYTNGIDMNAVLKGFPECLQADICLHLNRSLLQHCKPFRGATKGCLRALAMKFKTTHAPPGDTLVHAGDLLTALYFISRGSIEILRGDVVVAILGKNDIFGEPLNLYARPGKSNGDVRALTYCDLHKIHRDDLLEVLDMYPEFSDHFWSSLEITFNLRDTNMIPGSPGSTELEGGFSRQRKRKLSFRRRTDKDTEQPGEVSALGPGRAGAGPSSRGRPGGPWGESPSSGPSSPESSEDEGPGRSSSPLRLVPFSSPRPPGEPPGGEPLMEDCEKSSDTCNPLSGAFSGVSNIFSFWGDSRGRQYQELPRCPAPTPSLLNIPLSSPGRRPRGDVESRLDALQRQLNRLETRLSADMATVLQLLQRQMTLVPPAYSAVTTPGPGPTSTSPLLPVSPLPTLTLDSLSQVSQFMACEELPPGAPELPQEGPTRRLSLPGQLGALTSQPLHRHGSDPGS

The term IC50 denotes the concentration at which inhibition is half-maximal. As to `COc1cc(CN2CCc3c(-c4ccc(F)cc4F)cc(C(N)=O)nc3C2)ccn1` [14b, 4-(2,4-difluorophenyl)-7-((2-methoxypyridin-4-yl)methyl)-5,6,7,8-tetrahydro-1,7-naphthyridine-2-carboxamide], the “Interaction with related mGlu receptor family” value in series [1] is given as “no substantial interaction”. Besides, the concentration for half-maximal inhibition (IC50) at human mGlu2 is 24 nM; at human mGlu3 it was over 10 µM. In addition, the “Activity in hERG safety assay” value on hERG was “no activity”. Also, in the series on major CNS targets (10 μM compound, n = 4), the Off-target binding entry is on record as “No significant off-target binding (>50%)”. Besides, the “Response with other major brain targets” value with major CNS targets (comprehensive CNS panel, NIMH PDSP) is listed as “no significant response”.

As usually defined, the LogD is the decadic logarithm of the distribution of all forms, ionised or not, between an organic phase and buffer at a given pH. As for `Cc1cc(COc2cnc(C(N)=O)cc2-c2ccc(O[11CH3])cc2F)ccn1` [[^11C]MMP, 4-(2-fluoro-4-[^11C]methoxyphenyl)-5-((2-methylpyridin-4-yl)methoxy)picolinamide], the LogD in series [2] is listed as 3.30. Besides, the “Brain uptake, peak value” in series [3] is given as ~ 0.6. Moreover, the concentration for half-maximal inhibition (IC50) in the series with mGlu2 was 0.026 µM.

These data come from publication PMC7532674, “Synthesis and preliminary studies of ^11C-labeled tetrahydro-1,7-naphthyridine-2-carboxamides for PET imaging of metabotropic glutamate receptor 2” (Theranostics, 2020).
